Data taken from PubChem BioAssay AID1963840 (Molecular Pharmacology Branch, DTP, NCI, 2024).
pIC50: −log10 of the molar value.

Test system: 695427-040-R-J1-PDC complex spheroid viability
Experiment: Anticancer human tumor 695427-040-R-J1-PDC patient-derived colon adenocarcinoma cell line growth inhibition [POLQ]
Conditions: for pIC50: curve of first compound; for viability, T/C: stronger effect = lower value
How it was run: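 Growth inhibition in 3D: complex spheroids (tumor PDC, HUVEC, MSC) treated with POLQ inhibitor combinations; where Cmax unknown, highest tested concentration 10 microM, except SN-38 at 1 microM.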

[1] = second compound 0.0316 µM, first compound 0.0316 µM
[2] = second compound 0.0316 µM, first compound 0.1 µM
[3] = second compound 0.0316 µM, first compound 0.316 µM
[4] = second compound 0.0316 µM, first compound 1 µM
[5] = second compound 0.0316 µM, first compound 3.16 µM
[6] = second compound 0.0316 µM, first compound 10 µM
[7] = second compound 0.1 µM, first compound 0.0316 µM
[8] = second compound 0.1 µM, first compound 0.1 µM
[9] = second compound 0.1 µM, first compound 0.316 µM
[10] = second compound 0.1 µM, first compound 1 µM
[11] = second compound 0.1 µM, first compound 3.16 µM
[12] = second compound 0.1 µM, first compound 10 µM
[13] = second compound 0.316 µM, first compound 0.0316 µM
[14] = second compound 0.316 µM, first compound 0.1 µM
[15] = second compound 0.316 µM, first compound 0.316 µM
[16] = second compound 0.316 µM, first compound 1 µM
[17] = second compound 0.316 µM, first compound 3.16 µM
[18] = second compound 0.316 µM, first compound 10 µM
[19] = second compound 1 µM, first compound 0.0316 µM
[20] = second compound 1 µM, first compound 0.1 µM
[21] = second compound 1 µM, first compound 0.316 µM
[22] = second compound 1 µM, first compound 1 µM
[23] = second compound 1 µM, first compound 3.16 µM
[24] = second compound 1 µM, first compound 10 µM
[25] = second compound 3.16 µM, first compound 0.0316 µM
[26] = second compound 3.16 µM, first compound 0.1 µM
[27] = second compound 3.16 µM, first compound 0.316 µM
[28] = second compound 3.16 µM, first compound 1 µM
[29] = second compound 3.16 µM, first compound 3.16 µM
[30] = second compound 3.16 µM, first compound 10 µM
[31] = second compound 10 µM, first compound 0.0316 µM
[32] = second compound 10 µM, first compound 0.1 µM
[33] = second compound 10 µM, first compound 0.316 µM
[34] = second compound 10 µM, first compound 1 µM
[35] = second compound 10 µM, first compound 3.16 µM
[36] = second compound 10 µM, first compound 10 µM
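Note: spheroids exposed to compounds for seven days.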
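Throughout, for viability, T/C: 100% = DMSO vehicle control viability.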

Structure (SMILES): CC(C)n1c(=O)n(C)c2cnc3cc(F)c(-c4ccc(OCCCN5CCCCC5)nc4)cc3c21 + Nc1ccc(C#CCN(C(=O)Cc2ncc(C(F)(F)F)cc2C(F)(F)F)c2ccc(F)cc2)nn1
- pIC50 (second compound 0.0316 µM): < 5.00
- pIC50 (second compound 0.1 µM): < 5.00
- pIC50 (second compound 0.316 µM): < 5.00
- pIC50 (second compound 1 µM): < 5.00
- pIC50 (second compound 3.16 µM): < 5.00
- pIC50 (second compound 10 µM): < 5.00
- viability, T/C [1]: 103%
- viability, T/C [2]: 105%
- viability, T/C [3]: 112%
- viability, T/C [4]: 110%
- viability, T/C [5]: 100%
- viability, T/C [6]: 91.4%
- viability, T/C [7]: 106%
- viability, T/C [8]: 109%
- viability, T/C [9]: 115%
- viability, T/C [10]: 107%
- viability, T/C [11]: 108%
- viability, T/C [12]: 81.9%
- viability, T/C [13]: 114%
- viability, T/C [14]: 112%
- viability, T/C [15]: 103%
- viability, T/C [16]: 110%
- viability, T/C [17]: 106%
- viability, T/C [18]: 91.8%
- viability, T/C [19]: 102%
- viability, T/C [20]: 98.9%
- viability, T/C [21]: 116%
- viability, T/C [22]: 106%
- viability, T/C [23]: 115%
- viability, T/C [24]: 82.4%
- viability, T/C [25]: 107%
- viability, T/C [26]: 100%
- viability, T/C [27]: 105%
- viability, T/C [28]: 104%
- viability, T/C [29]: 96%
- viability, T/C [30]: 79.6%
- viability, T/C [31]: 99.7%
- viability, T/C [32]: 90.1%
- viability, T/C [33]: 101%
- viability, T/C [34]: 108%
- viability, T/C [35]: 95.4%
- viability, T/C [36]: 88%

Structure (SMILES): CC1COCCN1c1cc(-c2ccnn2C)c2ccnc(-c3ccn[nH]3)c2n1 (stereo unspecified) + Nc1ccc(C#CCN(C(=O)Cc2ncc(C(F)(F)F)cc2C(F)(F)F)c2ccc(F)cc2)nn1
- pIC50 (second compound 0.0316 µM): < 5.00
- pIC50 (second compound 0.1 µM): < 5.00
- pIC50 (second compound 0.316 µM): < 5.00
- pIC50 (second compound 1 µM): < 5.00
- pIC50 (second compound 3.16 µM): < 5.00
- pIC50 (second compound 10 µM): < 5.00
- viability, T/C [1]: 92.9%
- viability, T/C [2]: 91.8%
- viability, T/C [3]: 72.9%
- viability, T/C [4]: 66.8%
- viability, T/C [5]: 61.6%
- viability, T/C [6]: 56.3%
- viability, T/C [7]: 117%
- viability, T/C [8]: 89.1%
- viability, T/C [9]: 74.3%
- viability, T/C [10]: 66.3%
- viability, T/C [11]: 61.7%
- viability, T/C [12]: 56.2%
- viability, T/C [13]: 105%
- viability, T/C [14]: 92.7%
- viability, T/C [15]: 71%
- viability, T/C [16]: 62.5%
- viability, T/C [17]: 65%
- viability, T/C [18]: 56.9%
- viability, T/C [19]: 108%
- viability, T/C [20]: 83.5%
- viability, T/C [21]: 73.6%
- viability, T/C [22]: 65.6%
- viability, T/C [23]: 59.7%
- viability, T/C [24]: 51.4%
- viability, T/C [25]: 102%
- viability, T/C [26]: 84.3%
- viability, T/C [27]: 70.3%
- viability, T/C [28]: 61.1%
- viability, T/C [29]: 61.8%
- viability, T/C [30]: 52.2%
- viability, T/C [31]: 92%
- viability, T/C [32]: 80.3%
- viability, T/C [33]: 64.2%
- viability, T/C [34]: 57.8%
- viability, T/C [35]: 58.5%
- viability, T/C [36]: 58%

Structure (SMILES): CC1COCCN1c1cc(C2(S(C)(=N)=O)CC2)nc(-c2ccnc3[nH]ccc23)n1 (stereo unspecified) + Nc1ccc(C#CCN(C(=O)Cc2ncc(C(F)(F)F)cc2C(F)(F)F)c2ccc(F)cc2)nn1
- pIC50 (second compound 0.0316 µM): < 5.00
- pIC50 (second compound 0.1 µM): < 5.00
- pIC50 (second compound 0.316 µM): < 5.00
- pIC50 (second compound 1 µM): < 5.00
- pIC50 (second compound 3.16 µM): < 5.00
- pIC50 (second compound 10 µM): < 5.00
- viability, T/C [1]: 110%
- viability, T/C [2]: 103%
- viability, T/C [3]: 99.4%
- viability, T/C [4]: 106%
- viability, T/C [5]: 99.6%
- viability, T/C [6]: 96.2%
- viability, T/C [7]: 108%
- viability, T/C [8]: 100%
- viability, T/C [9]: 97.4%
- viability, T/C [10]: 98.1%
- viability, T/C [11]: 112%
- viability, T/C [12]: 94.5%
- viability, T/C [13]: 96.8%
- viability, T/C [14]: 104%
- viability, T/C [15]: 93.9%
- viability, T/C [16]: 104%
- viability, T/C [17]: 99.9%
- viability, T/C [18]: 82.2%
- viability, T/C [19]: 102%
- viability, T/C [20]: 101%
- viability, T/C [21]: 102%
- viability, T/C [22]: 102%
- viability, T/C [23]: 102%
- viability, T/C [24]: 86.6%
- viability, T/C [25]: 100%
- viability, T/C [26]: 95.1%
- viability, T/C [27]: 99.3%
- viability, T/C [28]: 101%
- viability, T/C [29]: 95.4%
- viability, T/C [30]: 88.2%
- viability, T/C [31]: 104%
- viability, T/C [32]: 97.9%
- viability, T/C [33]: 95%
- viability, T/C [34]: 96.7%
- viability, T/C [35]: 91.6%
- viability, T/C [36]: 74.9%
